Measured values: PubChem BioAssay (NCI)
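Growth conditions: 96-well plates. Treatment: test compound, 48 hours, 5 concentrations. Analysis: linear interpolation between bracketing concentrations; unreached endpoints set to highest concentration. TGI: total growth inhibition.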

Tests used:
Assay in all cases: NCI tumour cell line growth inhibition, 48 h
SF-539 CNS = system: SF-539 CNS
OVCAR-8 ovarian = system: OVCAR-8 ovarian
DMS 114 small cell lung = system: DMS 114 small cell lung
NCI-H522 lung = system: NCI-H522 lung
OVCAR-3 ovarian = system: OVCAR-3 ovarian
SNB-78 CNS = system: SNB-78 CNS
SR leukemia = system: SR leukemia
DMS 273 small cell lung = system: DMS 273 small cell lung
UO-31 renal = system: UO-31 renal
DLD-1 colon = system: DLD-1 colon
CAKI-1 renal = system: CAKI-1 renal
NCI-H460 lung = system: NCI-H460 lung
U251 CNS = system: U251 CNS
SN12C renal = system: SN12C renal
K-562 leukemia = system: K-562 leukemia
HT29 colon = system: HT29 colon
SK-MEL-2 melanoma = system: SK-MEL-2 melanoma
OVCAR-5 ovarian = system: OVCAR-5 ovarian
LXFL 529 NSCLC = system: LXFL 529 NSCLC
UACC-257 melanoma = system: UACC-257 melanoma
RXF-631 renal = system: RXF-631 renal
SNB-19 CNS = system: SNB-19 CNS
NCI-H23 lung = system: NCI-H23 lung
SF-268 CNS = system: SF-268 CNS
SNB-75 CNS = system: SNB-75 CNS
A549 NSCLC = system: A549 NSCLC
M14 melanoma = system: M14 melanoma
ACHN renal = system: ACHN renal
SK-OV-3 ovarian = system: SK-OV-3 ovarian
A498 renal = system: A498 renal
SK-MEL-5 melanoma = system: SK-MEL-5 melanoma
MOLT-4 leukemia = system: MOLT-4 leukemia
IGROV1 ovarian = system: IGROV1 ovarian
M19-MEL melanoma = system: M19-MEL melanoma
UACC-62 melanoma = system: UACC-62 melanoma
CCRF-CEM leukemia = system: CCRF-CEM leukemia
HCT-116 colon = system: HCT-116 colon
SF-295 CNS = system: SF-295 CNS
COLO 205 colon = system: COLO 205 colon
MALME-3M melanoma = system: MALME-3M melanoma
KM20L2 colon = system: KM20L2 colon
OVCAR-4 ovarian = system: OVCAR-4 ovarian
HCC-2998 colon = system: HCC-2998 colon
SK-MEL-28 melanoma = system: SK-MEL-28 melanoma
HOP-18 NSCLC = system: HOP-18 NSCLC
TK-10 renal = system: TK-10 renal
EKVX NSCLC = system: EKVX NSCLC
786-0 renal = system: 786-0 renal
LOX IMVI melanoma = system: LOX IMVI melanoma
HCT-15 colon = system: HCT-15 colon
SW-620 colon = system: SW-620 colon
KM12 colon = system: KM12 colon
HL-60(TB) leukemia = system: HL-60(TB) leukemia
HOP-92 NSCLC = system: HOP-92 NSCLC
NCI-H226 lung = system: NCI-H226 lung
RPMI-8226 leukemia = system: RPMI-8226 leukemia
HOP-62 NSCLC = system: HOP-62 NSCLC
XF 498 CNS = system: XF 498 CNS
RXF 393 renal = system: RXF 393 renal

Measured: TGI

O=C(O)CCC1c2[nH]c3ccccc3c2CCN1Cc1ccccc1 (stereo not given)
not listed: RPMI-8226 leukemia | HOP-62 NSCLC | XF 498 CNS | RXF 393 renal
> 100 µM: all other assays above

CCc1ccccc1NC(=O)C(=O)C1C(=O)N(c2ccccc2)N=C1N (stereo not given)
not listed: NCI-H522 lung | SR leukemia | SK-OV-3 ovarian | CCRF-CEM leukemia | COLO 205 colon
> 100 µM: all other assays above

O=C(CC(=O)c1cccc([N+](=O)[O-])c1)C(=O)Nc1ccccc1
not listed: SR leukemia | SK-OV-3 ovarian | COLO 205 colon
> 100 µM: all other assays above

CCN(CC)C(=O)CC12CCCCC1=Nc1ccccc12 (stereo not given)
not listed: DMS 114 small cell lung | NCI-H522 lung | SR leukemia | UO-31 renal | SN12C renal | SNB-19 CNS | SF-268 CNS | NCI-H226 lung | RXF 393 renal
> 100 µM: all other assays above
